Here are results for twelve compounds from BindingDB's records for doi:10.1016/j.bmcl.2011.10.120 (Amgen, 2011).

Usually pIC50 stands for the negative decadic logarithm of the IC50, by convention in mol/L.

pIC50: −log10 of the molar value.

The assay is described as follows: Antagonist activity at CXCR3 assessed as inhibition of ITAC-mediated cell migration in presence of 100% human serum.
Consider `C[C@H](c1nc2ncccc2c(=O)n1-c1ccc(F)cc1)N(CC1CCS(=O)(=O)CC1)C(=O)Cc1ccc(C(F)(F)F)c(F)c1`, for which the pIC50 was 7.05.

As to `C[C@H](c1nc2ncccc2c(=O)n1-c1ccc(C#N)cc1)N(CC1CCS(=O)(=O)CC1)C(=O)Cc1ccc(F)c(C(F)(F)F)c1`, the pIC50 is 7.41.

As for `CCS(=O)(=O)CCN(C(=O)Cc1ccc(F)c(C(F)(F)F)c1)[C@H](C)c1nc2ncccc2c(=O)n1-c1ccc(F)cc1`, the pIC50 was 6.60.

Regarding `C[C@H](c1nc2ncccc2c(=O)n1-c1ccc(C#N)cc1)N(CC1CCS(=O)(=O)CC1)C(=O)Cc1ccc(C(F)(F)F)c(F)c1`, the pIC50 was 7.43.

As to `C[C@H](c1nc2ccccn2c(=O)c1-c1ccc(C#N)cc1)N(CC1CCS(=O)(=O)CC1)C(=O)Cc1ccc(OC(F)(F)F)cc1`, the pIC50 is 7.22.

As for `CCS(=O)(=O)CCN(C(=O)Cc1ccc(F)c(C(F)(F)F)c1)[C@H](C)c1nc2ncccc2c(=O)n1-c1ccc(Cl)cc1`, the negative logarithm of the IC50 (pIC50) is 6.99.

Consider `C[C@H](c1nc2ncccc2c(=O)n1-c1ccc(Cl)cc1)N(CC1CCS(=O)(=O)CC1)C(=O)Cc1ccc(F)c(C(F)(F)F)c1`, for which the pIC50 was 7.35.

Take `CCS(=O)(=O)CCN(C(=O)Cc1ccc(C(F)(F)F)c(F)c1)[C@H](C)c1nc2ncccc2c(=O)n1-c1ccc(F)cc1`: the negative logarithm of the IC50 (pIC50) was 6.53.

Consider `C[C@H](c1nc2ncccc2c(=O)n1-c1ccc(Cl)cc1)N(CC1CCS(=O)(=O)CC1)C(=O)Cc1ccc(C(F)(F)F)c(F)c1`, for which the pIC50 is 7.26.

For `C[C@H](c1nc2ncccc2c(=O)n1-c1ccc(F)cc1)N(CC1CCS(=O)(=O)CC1)C(=O)Cc1ccc(F)c(C(F)(F)F)c1`, the pIC50 is 7.14.

For the compound `CCS(=O)(=O)CCN(C(=O)Cc1ccc(C(F)(F)F)c(F)c1)[C@H](C)c1nc2ncccc2c(=O)n1-c1ccc(Cl)cc1`, the negative-log IC50 (pIC50) was 6.97.

As to `CCS(=O)(=O)CCN(C(=O)Cc1ccc(C(F)(F)F)c(F)c1)[C@H](C)c1nc2ncccc2c(=O)n1-c1ccc(C#N)cc1` [(R)-N-(1-(3-(4-cyanophenyl)-4-oxo-3,4-dihydropyrido[2,3-d]pyrimidin-2-yl)ethyl)-N-(2-(ethylsulfonyl)ethyl)-2-(3-fluoro-4-(trifluoromethyl)phenyl)acetamide], the pIC50 is 7.33.
